Assay: xn = mol fraction of the nth substance listed
Details: 323.15 K, Fluid (supercritical or subcritical phases)

CC(C)=O [acetone] + O=C=O
Details | mass density [kg/m3]
9680 kPa, x2 = 0.952 | 588
9710 kPa, x2 = 0.902 | 707
9750 kPa, x2 = 0.933 | 656
9750 kPa, x2 = 0.952 | 594
9840 kPa, x2 = 0.948 | 625
9850 kPa, x2 = 0.952 | 603
9870 kPa, x2 = 0.902 | 711
9900 kPa, x2 = 0.811 | 790
9900 kPa, x2 = 0.882 | 743
9900 kPa, x2 = 0.933 | 664
9940 kPa, x2 = 0.952 | 611
9960 kPa, x2 = 0.772 | 803
10020 kPa, x2 = 0.902 | 715
10030 kPa, x2 = 0.948 | 638
10050 kPa, x2 = 0.933 | 669
10100 kPa, x2 = 0.952 | 623
10160 kPa, x2 = 0.902 | 719
10220 kPa, x2 = 0.933 | 678
10290 kPa, x2 = 0.882 | 748
10290 kPa, x2 = 0.948 | 651
10320 kPa, x2 = 0.952 | 636
10360 kPa, x2 = 0.902 | 722
10420 kPa, x2 = 0.933 | 684
10440 kPa, x2 = 0.576 | 818
10490 kPa, x2 = 0.811 | 796
10540 kPa, x2 = 0.772 | 807
10570 kPa, x2 = 0.902 | 727
10590 kPa, x2 = 0.952 | 649
10600 kPa, x2 = 0.948 | 666
10630 kPa, x2 = 0.882 | 754
10640 kPa, x2 = 0.933 | 693
10780 kPa, x2 = 0.902 | 733
10800 kPa, x2 = 0.186 | 785
10880 kPa, x2 = 0.933 | 699
10920 kPa, x2 = 0.952 | 663
10950 kPa, x2 = 0.882 | 761
10980 kPa, x2 = 0.948 | 679
10990 kPa, x2 = 0.811 | 801
11000 kPa, x2 = 0.902 | 736
11060 kPa, x2 = 0.772 | 811
11160 kPa, x2 = 0.933 | 707
11260 kPa, x2 = 0.902 | 740
11280 kPa, x2 = 0.952 | 678
11440 kPa, x2 = 0.882 | 764
11460 kPa, x2 = 0.933 | 714
11480 kPa, x2 = 0.811 | 805
11480 kPa, x2 = 0.948 | 696
11500 kPa, x2 = 0.902 | 744
11640 kPa, x2 = 0.383 | 806
11760 kPa, x2 = 0.772 | 815
11760 kPa, x2 = 0.902 | 751
11780 kPa, x2 = 0.952 | 694
11800 kPa, x2 = 0.933 | 724
11870 kPa, x2 = 0.576 | 825
11870 kPa, x2 = 0.882 | 769

— the NIST ThermoML archive (doi:10.1021/je034087q)
